{"source": "patent US9546401B2", "about": "“Assays and methods for selecting a treatment regimen for a subject with depression” (The General Hospital Corporation, priority 2011, dated 2017)", "system": "MDD patients carrying the indicated biomarkers", "protocol": "Folate levels are classified as either low (<=2.5 ng/ml) or normal; and homocysteine levels as either normal or elevated (>=[…]). The presence or absence of at least one […] allele for the MTHFR gene are entered as a dichotomous variable (present or absent). […] Using folate as an example predicator, the presence or absence of a low serum-folate level along with treatment assignment can be entered in a 2×2, factorial ANOVA, using depression improvement scores (baseline minus endpoint HAM-D-17 scores) as the dependant variable. […] Similar analyses (i.e. separate 2×2 ANOVA's) can be performed substituting the presence of low folate levels for the presence of other predictors as described herein. Similarly, the effect of other predictors can be indicated by the interaction term representing the potential modulating influence of those variables.\nThe efficacy effect is determined by measuring the mean change in the HAMD-17 score and HAMD-28 score by the end of Phase I and Phase II, as compared to the baseline.", "key": {"[1]": {"details": "Phase II, BMI < 30 kg/m^2 and HNE-His < median"}, "[2]": {"details": "Phase II, BMI < 30 kg/m^2 and SAM/SAH >= median"}, "[3]": {"details": "Phase II, BMI >= 30 kg/m^2 and HNE-His >= median"}, "[4]": {"details": "Phase II, BMI*treat (interaction of BMI with the treatment)"}, "[5]": {"details": "Phase II, MTHFR 677 CC and BMI < 30 kg/m^2"}, "[6]": {"details": "Phase II, MTHFR 677 CT or TT and BMI >= 30 kg/m^2"}, "[7]": {"details": "Phase II, MTHFR 677 CT or TT and HNE-His >= median"}, "[8]": {"details": "Phase II, MTR 2756 AA and BMI < 30 kg/m^2"}, "[9]": {"details": "Phase II, MTR 2756 AA and HNE-His < median"}, "[10]": {"details": "Phase II, MTR 2756 AA and MTRR 66 AA"}, "[11]": {"details": "Phase II, MTR 2756 AA and MTRR 66 AA and SAM/SAH >= median"}, "[12]": {"details": "Phase II, MTR 2756 AA and SAM/SAH >= median"}, "[13]": {"details": "Phase II, MTR 2756 AG or GG and BMI >= 30 kg/m^2"}, "[14]": {"details": "Phase II, MTR 2756 AG or GG and MTRR 66 AG or GG"}, "[15]": {"details": "Phase II, MTR 2756 AG or GG and MTRR 66 AG or GG and HNE-His >= median"}, "[16]": {"details": "Phase II, MTRR 66 AA and SAM/SAH >= median"}, "[17]": {"details": "Phase II, MTRR 66 AG or GG and HNE-His >= median"}, "[18]": {"details": "Phase II, SAM/SAH < median and HNE-His >= median"}, "[19]": {"details": "Phase II, SAM/SAH >= median and HNE-His < median"}, "[20]": {"details": "Pooled phases, 25 =< BMI < 30 kg/m^2"}}, "note": "Where two headings read alike, the source gives them in different places.", "data": [{"smiles": "CN1c2c(nc(N)[nH]c2=O)NC[C@@H]1CNc1ccc(C(=O)N[C@@H](CCC(=O)O)C(=O)O)cc1", "note": "[6(S)-5-MTHF, 6(S)-5-methyltetrahydrofolate]", "values": [{"measurement": "Effect on change in HAMD-28 score", "setting": "Phase II, BMI < 25", "value": "−2.300"}, {"measurement": "Effect on change in HAMD-17 score", "setting": "[1]", "value": 3.667}, {"measurement": "Effect on change in HAMD-28 score", "setting": "[1]", "value": 1.833}, {"measurement": "Effect on change in HAMD-17 score", "setting": "[2]", "value": 1.500}, {"measurement": "Effect on change in HAMD-28 score", "setting": "[2]", "value": 2.500}, {"measurement": "Effect on change in HAMD-17 score", "setting": "Phase II, BMI >= 30 kg/m^2", "value": "−3.009"}, {"measurement": "Effect on change in HAMD-28 score", "setting": "Phase II, BMI >= 30 kg/m^2", "value": "−3.245"}, {"measurement": "Effect on change in HAMD-17 score", "setting": "[3]", "value": "−4.233"}, {"measurement": "Effect on change in HAMD-28 score", "setting": "[3]", "value": "−4.933"}, {"measurement": "Effect on change in HAMD-17 score", "setting": "Phase II, BMI >= 30 kg/m^2 and SAM/SAH < median", "value": "−9.200"}, {"measurement": "Effect on change in HAMD-28 score", "setting": "Phase II, BMI >= 30 kg/m^2 and SAM/SAH < median = 2.71 (plasma)", "value": "−10.350"}, {"measurement": "Effect on change in HAMD-17 score", "setting": "[4]", "value": 0.113}, {"measurement": "Effect on change in HAMD-28 score", "setting": "[4]", "value": 0.082}, {"measurement": "Effect on change in HAMD-17 score", "setting": "[5]", "value": "−2.267"}, {"measurement": "Effect on change in HAMD-28 score", "setting": "[5]", "value": "−3.000"}, {"measurement": "Effect on change in HAMD-17 score", "setting": "Phase II, MTHFR 677 CC and HNE-His < median", "value": "−0.857"}, {"measurement": "Effect on change in HAMD-28 score", "setting": "Phase II, MTHFR 677 CC and HNE-His < median = 3.28 (plasma)", "value": "−0.536"}, {"measurement": "Effect on change in HAMD-17 score", "setting": "[6]", "value": "−7.333"}, {"measurement": "Effect on change in HAMD-28 score", "setting": "[6]", "value": "−8.667"}, {"measurement": "Effect on change in HAMD-17 score", "setting": "[7]", "value": "−7.500"}, {"measurement": "Effect on change in HAMD-28 score", "setting": "[7]", "value": "−7.500"}, {"measurement": "Effect on change in HAMD-17 score", "setting": "Phase II, MTR 2756 AA", "value": "−0.427"}, {"measurement": "Effect on change in HAMD-28 score", "setting": "Phase II, MTR 2756 AA", "value": "−0.446"}, {"measurement": "Effect on change in HAMD-17 score", "setting": "[8]", "value": 1.167}, {"measurement": "Effect on change in HAMD-28 score", "setting": "[8]", "value": 0.917}, {"measurement": "Effect on change in HAMD-17 score", "setting": "[9]", "value": 0.300}, {"measurement": "Effect on change in HAMD-28 score", "setting": "[9]", "value": "−0.125"}, {"measurement": "Effect on change in HAMD-17 score", "setting": "[10]", "value": "−8.000"}, {"measurement": "Effect on change in HAMD-28 score", "setting": "[10]", "value": "−8.000"}, {"measurement": "Effect on change in HAMD-17 score", "setting": "Phase II, MTR 2756 AA and MTRR 66 AA and HNE-His < median", "value": "−8.667"}, {"measurement": "Effect on change in HAMD-28 score", "setting": "Phase II, MTR 2756 AA and MTRR 66 AA and HNE-His < median = 3.28 (plasma)", "value": "−9.000"}, {"measurement": "Effect on change in HAMD-17 score", "setting": "[11]", "value": "−7.000"}, {"measurement": "Effect on change in HAMD-28 score", "setting": "[11]", "value": "−7.500"}, {"measurement": "Effect on change in HAMD-17 score", "setting": "[12]", "value": 1.971}, {"measurement": "Effect on change in HAMD-28 score", "setting": "[12]", "value": 2.000}, {"measurement": "Effect on change in HAMD-17 score", "setting": "[13]", "value": "−12.167"}, {"measurement": "Effect on change in HAMD-28 score", "setting": "[13]", "value": "−13.000"}, {"measurement": "Effect on change in HAMD-17 score", "setting": "Phase II, MTR 2756 AG or GG and HNE-His >= median", "value": "−8.417"}, {"measurement": "Effect on change in HAMD-28 score", "setting": "Phase II, MTR 2756 AG or GG and HNE-His >= median = 3.28 (plasma)", "value": "−9.500"}, {"measurement": "Effect on change in HAMD-17 score", "setting": "[14]", "value": "−4.667"}, {"measurement": "Effect on change in HAMD-28 score", "setting": "[14]", "value": "−6.583"}, {"measurement": "Effect on change in HAMD-17 score", "setting": "[15]", "value": "−11.000"}, {"measurement": "Effect on change in HAMD-28 score", "setting": "[15]", "value": "−12.000"}, {"measurement": "Effect on change in HAMD-17 score", "setting": "Phase II, MTR 2756 AG or GG and MTRR 66 AG or GG and SAM/SAH < median", "value": "−6.500"}, {"measurement": "Effect on change in HAMD-28 score", "setting": "Phase II, MTR 2756 AG or GG and MTRR 66 AG or GG and SAM/SAH < median = 2.71 (plasma)", "value": "−10.500"}, {"measurement": "Effect on change in HAMD-17 score", "setting": "Phase II, MTR 2756 AG or GG and SAM/SAH < median", "value": "−2.500"}, {"measurement": "Effect on change in HAMD-28 score", "setting": "Phase II, MTR 2756 AG or GG and SAM/SAH < median = 2.71 (plasma)", "value": "−7.500"}, {"measurement": "Effect on change in HAMD-17 score", "setting": "Phase II, MTR 2756 AG/GG", "value": "−3.600"}, {"measurement": "Effect on change in HAMD-28 score", "setting": "Phase II, MTR 2756 AG/GG", "value": "−5.300"}, {"measurement": "Effect on change in HAMD-17 score", "setting": "Phase II, MTRR 66 AA and HNE-His < median", "value": "−1.667"}, {"measurement": "Effect on change in HAMD-28 score", "setting": "Phase II, MTRR 66 AA and HNE-His < median = 3.28 (plasma)", "value": "−2.000"}, {"measurement": "Effect on change in HAMD-17 score", "setting": "[16]", "value": "−3.000"}, {"measurement": "Effect on change in HAMD-28 score", "setting": "[16]", "value": "−3.333"}, {"measurement": "Effect on change in HAMD-17 score", "setting": "[17]", "value": "−3.500"}, {"measurement": "Effect on change in HAMD-28 score", "setting": "[17]", "value": "−4.071"}, {"measurement": "Effect on change in HAMD-17 score", "setting": "Phase II, MTRR 66 AG or GG and SAM/SAH < median", "value": "−6.190"}, {"measurement": "Effect on change in HAMD-28 score", "setting": "Phase II, MTRR 66 AG or GG and SAM/SAH < median = 2.71 (plasma)", "value": "−7.381"}, {"measurement": "Effect on change in HAMD-17 score", "setting": "[18]", "value": "−9.000"}, {"measurement": "Effect on change in HAMD-28 score", "setting": "[18]", "value": "−12.000"}, {"measurement": "Effect on change in HAMD-17 score", "setting": "[19]", "value": 4.000}, {"measurement": "Effect on change in HAMD-28 score", "setting": "[19]", "value": 4.500}, {"measurement": "Effect on change in HAMD-28 score", "setting": "Phase II, SAM/SAH*treat, first line under HAMD28", "value": 1.483}, {"measurement": "Effect on change in HAMD-17 score", "setting": "Phase II, baseHAMD-17*treat (interaction of base HAMD-17 with the treatment)", "value": "−0.249"}, {"measurement": "Effect on change in HAMD-17 score", "setting": "[20]", "value": 3.331}, {"measurement": "Effect on change in HAMD-28 score", "setting": "[20]", "value": 2.054}, {"measurement": "Effect on change in HAMD-17 score", "setting": "Pooled phases, BMI < 25", "value": "−1.248"}]}]}
